Test [1] addresses T1, dopamine beta-hydroxylase (Bos taurus, UniProt P15101).
T1 sequence (P15101 1-610): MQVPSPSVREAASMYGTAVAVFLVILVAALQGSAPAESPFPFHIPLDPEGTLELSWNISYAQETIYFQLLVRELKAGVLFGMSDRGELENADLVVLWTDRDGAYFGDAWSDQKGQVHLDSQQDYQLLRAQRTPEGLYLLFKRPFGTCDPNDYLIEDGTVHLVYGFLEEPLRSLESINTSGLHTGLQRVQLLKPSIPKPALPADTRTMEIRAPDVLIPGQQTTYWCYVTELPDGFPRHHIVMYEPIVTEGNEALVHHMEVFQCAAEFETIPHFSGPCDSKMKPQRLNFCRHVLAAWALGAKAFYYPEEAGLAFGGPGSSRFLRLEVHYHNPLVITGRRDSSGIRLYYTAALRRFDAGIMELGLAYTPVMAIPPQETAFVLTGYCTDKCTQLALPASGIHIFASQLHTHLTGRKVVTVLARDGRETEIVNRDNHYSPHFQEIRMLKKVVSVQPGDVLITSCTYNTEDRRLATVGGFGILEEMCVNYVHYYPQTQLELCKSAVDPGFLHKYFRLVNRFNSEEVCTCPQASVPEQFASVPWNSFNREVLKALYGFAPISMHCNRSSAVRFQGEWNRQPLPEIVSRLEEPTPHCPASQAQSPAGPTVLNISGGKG
Briefly: in vitro DBH inhibition (conversion of tyramine to octopamine; oxygen uptake by polarographic electrode). It counts as biochemical. The note with it: pH of 5, 37° C. preferably. Here is the method:
The DBH inhibitory properties of the compounds of this invention can readily be determined in vitro by standard and well known procedures for assaying conversion of tyramine to octopamine in the presence of dopamine beta-hydroxylase. Enzymatic oxygenation by DBH is determined in aqueous solution in the presence of molecular oxygen, an electron donor such as ascorbate, and the necessary cofactors for the enzyme at pH of 5 and a temperature of 20°-40° C., preferably 37° C. The test compound is added at the desired concentration, and the system is incubated. Activity is measured by measuring the oxygen uptake using a polarographic electrode and an oxygen monitor by the method of S. May, et al., J. Biol. Chem. 256, 2258 (1981). Inhibition is given in molar concentration of compound at which DBH activity was halved (IC50) when the test compounds were tested according to the above described procedure. The IC50 (expressed in micromolar units) data of some of the compounds of this invention are expressed in Table I.

Test [2] has as its system spontaneously hypertensive rats. Briefly: antihypertensive effect: blood pressure monitored continuously in spontaneously hypertensive rats after ip dosing. It counts as in vivo. The note with it: 50 mg/kg, 6 hours post dose in SHR, Mean Difference ± Standard Deviation. Here is the method:
The ability of the compounds of this invention to lower blood pressure can be determined in vivo using spontaneously hypertensive rats (SHR'S) according to standard and well known procedures. The test compound is administered intraperitoneally (ip) to rats and the blood pressure monitored continuously. Snce DBH is a major enzyme in the synthetic pathway of the catecholamines, it would be expected that the presence of an inhibitor would act to decrease the amount of catecholamines produced, and thereby have an antihypertensive effect. The results of the testing for this antihypertensive effect are shown in Table I (MBP is mean blood pressure).
In Vivo at 50 mg/kg, IP, 6 Hours Post Dose in SHR's*

What is called IC50 is the point on the concentration scale where inhibition reaches its midpoint. Compound `NCc1nccn1Cc1cccs1` [Compound 1, 2-Aminomethyl-1-(2-thienylmethyl)-1H-imidazole] had a 50% inhibitory concentration (IC50) in test [1] of 12.8 µM. The “Max Change MBP (mean blood pressure)” value in test [2] is recorded as -41 ± 14 mmHg.

For the compound `NC(=S)c1nccn1Cc1cccs1` [Compound 2, 1-(2-Thienylmethyl)-2-thiocarbamyl-1H-imidazole], in test [1], the half-inhibitory concentration (IC50) was 4.7 µM. Besides, the “Max Change MBP (mean blood pressure)” value in test [2] is on record as -25 ± 12 mmHg.

Values taken from patent publication US4810800A, “Novel imidazole dopamine beta hydroxylase inhibitors” (Merrell Dow Pharmaceuticals Inc., priority 1988, dated 1989).
